According to patent publication US11780840B2 (Incyte Corporation, priority 2020, dated 2023):

How the values were obtained:
[1] = target: T1, catalytic domain (JH1, amino acids 826-1132) of human JAK2 (Homo sapiens, UniProt O60674); assay: JAK2 LanthaScreen JH1 Binding Assay; settings: JAK2 JH1 (1.5 nM), 50 nM fluorescent JAK2-JH1 tracer, 2 hours at 25° C.; read-out: JH1 BIND
T1 construct: catalytic domain (JH1, amino acids 826-1132) of human JAK2; FLAG (N); purchased Carna Biosciences 08-445-20N; host or cells: baculovirus expression system
In short: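 TR-FRET tracer-displacement format: compound IC50 from four-parameter curves after 2 h at 25° C. Reaction held 1.5 nM biotinylated, FLAG-tagged JH1 (aa 826-1132), 50 nM tracer, 0.5 nM Streptavidin-Tb, pH 7.5 Tris buffer; 2 mM ATP set nonspecific background.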

[2] = target: T2, pseudo-kinase domain (JH2, amino-acids 536-812 with 3 surface mutations W659A, W777A, F794H) of human Wild Type JAK2 (Homo sapiens, UniProt O60674, F794H/W659A/W777A); assay: JAK2 LanthaScreen JH2-WT Binding Assay; settings: JAK2 JH2-WT (0.145 nM), 50 nM Fluorescent JAK2-JH2 Tracer, 1 hour at 25° C.; read-out: JH2 BIND WT
T2 construct: pseudo-kinase domain (JH2, amino-acids 536-812 with 3 surface mutations W659A, W777A, F794H); His (C); Avi (biotinylated) (C); purchased BPS Bioscience 79463; host or cells: baculovirus expression system
In short: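 Compounds, serially diluted, were mixed with 0.145 nM JH2 domain, 50 nM tracer and 0.25 nM streptavidin-Tb cryptate, then incubated 1 hour at 25° C before LanthaScreen reading. Wells containing 2 mM ATP defined non-specific binding. Four-parameter dose-response curves gave IC50.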

[3] = target: T3, pseudo-kinase domain (JH2, amino-acids 536-812 with 3 surface mutations W659A, W777A, F794H) of human V617F mutant JAK2 (Homo sapiens, UniProt O60674, F794H/V617F/W659A/W777A); assay: JAK2 LanthaScreen JH2-V617F Binding Assay; settings: JAK2 JH2-V617F (0.26 nM), 50 nM Fluorescent JAK2-JH2 Tracer, 1 hour at 25° C.; read-out: JH2 BIND V617F
T3 construct: pseudo-kinase domain (JH2, amino-acids 536-812 with 3 surface mutations W659A, W777A, F794H); His (C); Avi (biotinylated) (C); purchased BPS Bioscience 79498; host or cells: baculovirus expression system
In short: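 Binding was measured as TR-FRET displacement of 50 nM tracer from 0.26 nM biotinylated His-Avi protein, incubated one hour at 25° C; IC50 from a four-parameter fit.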

T1 sequence (O60674 826-1132): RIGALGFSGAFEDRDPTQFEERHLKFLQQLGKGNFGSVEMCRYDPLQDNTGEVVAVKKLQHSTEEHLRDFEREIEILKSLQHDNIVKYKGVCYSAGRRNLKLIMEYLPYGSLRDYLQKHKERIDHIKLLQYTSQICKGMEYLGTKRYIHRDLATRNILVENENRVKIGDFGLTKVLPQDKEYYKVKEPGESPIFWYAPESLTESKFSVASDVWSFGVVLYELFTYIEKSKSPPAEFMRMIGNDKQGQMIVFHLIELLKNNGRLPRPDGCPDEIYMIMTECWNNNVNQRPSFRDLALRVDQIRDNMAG
T3 sequence (O60674 536-812 V617F/W659A/W777A/F794H): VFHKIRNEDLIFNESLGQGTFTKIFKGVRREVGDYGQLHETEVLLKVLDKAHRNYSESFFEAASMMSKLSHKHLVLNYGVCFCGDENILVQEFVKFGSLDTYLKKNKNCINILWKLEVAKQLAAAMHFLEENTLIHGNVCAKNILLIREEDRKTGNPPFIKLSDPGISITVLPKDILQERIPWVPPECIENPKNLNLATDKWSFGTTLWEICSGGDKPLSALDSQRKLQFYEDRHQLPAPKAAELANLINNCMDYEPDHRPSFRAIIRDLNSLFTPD
T2 sequence (O60674 536-812 W659A/W777A/F794H): as the sequence (O60674 536-812 V617F/W659A/W777A/F794H) above, with F82V counted along it

Structure (SMILES) | IC50 [1] [nM] | IC50 [2] [nM] | IC50 [3] [nM]
CCOC(=O)N[C@H]1C[C@@H](n2c(=O)n(C)c3cnc4[nH]c(-c5cnn(C)c5)c(-c5ccc(C#N)cc5)c4c32)C1 [Example 105, Ethyl ((1S,3S)-3-(8-(4-cyanophenyl)-3-methyl-7-(1-methyl-1H-pyrazol-4-yl)-2-oxo-3,6-dihydroimidazo[4,5-d]pyrrolo[2,3-b]pyridin-1(2H)-yl)cyclobutyl)carbamate] | > 1000 | ≤ 10 | ≤ 10
CCOC(=O)N[C@H]1C[C@@H](n2c(=O)n(C)c3cnc4[nH]c(-c5cnn(C)c5)c(-c5ccc(OC)cc5)c4c32)C1 [Example 106, Ethyl ((1S,3S)-3-(8-(4-methoxyphenyl)-3-methyl-7-(1-methyl-1H-pyrazol-4-yl)-2-oxo-3,6-dihydroimidazo[4,5-d]pyrrolo[2,3-b]pyridin-1(2H)-yl)cyclobutyl)carbamate] | > 1000 | ≤ 10 | ≤ 10
CC(C)n1c(=O)n(C)c2cnc3[nH]c(-c4cnn(C)c4)c(C4CCN(C(=O)Cc5ccc(S(C)(=O)=O)cc5)CC4)c3c21 [Example 107, 1-Isopropyl-3-methyl-7-(1-methyl-1H-pyrazol-4-yl)-8-(1-(2-(4-(methylsulfonyl)phenyl)acetyl)piperidin-4-yl)-3,6-dihydroimidazo[4,5-d]pyrrolo[2,3-b]pyridin-2(1H)-one] | 100 to 500 | 10 to 100 | 10 to 100
COc1nn(C)cc1-c1[nH]c2ncc3c(c2c1-c1ccc2c(cnn2C)c1)n([C@H]1CC[C@@H](CC#N)CC1)c(=O)n3C [Example 108, 2-((1S,4S)-4-(7-(3-methoxy-1-methyl-1H-pyrazol-4-yl)-3-methyl-8-(1-methyl-1H-indazol-5-yl)-2-oxo-3,6-dihydroimidazo[4,5-d]pyrrolo[2,3-b]pyridin-1(2H)-yl)cyclohexyl)acetonitrile] | > 1000 | ≤ 10 | ≤ 10
[2H]C([2H])([2H])n1ncc2cc(-c3c(-c4cn(C)nc4OC)[nH]c4ncc5c(c34)n(C3CCOCC3)c(=O)n5C)ccc21 [Example 109, 7-(3-Methoxy-1-methyl-1H-pyrazol-4-yl)-3-methyl-8-(1-(methyl-d3)-1H-indazol-5-yl)-1-(tetrahydro-2H-pyran-4-yl)-3,6-dihydroimidazo[4,5-d]pyrrolo[2,3-b]pyridin-2(1H)-one] | > 1000 | ≤ 10 | ≤ 10
[2H]C([2H])([2H])n1ncc2cc(-c3c(-c4cnn5cccnc45)[nH]c4ncc5c(c34)n(C3CCOCC3)c(=O)n5C)ccc21 [Example 110, 3-Methyl-8-(1-(methyl-d3)-1H-indazol-5-yl)-7-(pyrazolo[1,5-a]pyrimidin-3-yl)-1-(tetrahydro-2H-pyran-4-yl)-3,6-dihydroimidazo[4,5-d]pyrrolo[2,3-b]pyridin-2(1H)-one] | > 1000 | ≤ 10 | ≤ 10
Cn1cc(-c2[nH]c3ncc4c(c3c2-c2ccc3c(cnn3C)c2)n(C2CCN(C3(CC#N)CCC3)CC2)c(=O)n4C)cn1 [Example 111, 2-(1-(4-(3-Methyl-8-(1-methyl-1H-indazol-5-yl)-7-(1-methyl-1H-pyrazol-4-yl)-2-oxo-3,6-dihydroimidazo[4,5-d]pyrrolo[2,3-b]pyridin-1(2H)-yl)piperidin-1-yl)cyclobutyl)acetonitrile] | 500 to 1000 | ≤ 10 | ≤ 10
Cn1cc(-c2[nH]c3ncc4c(c3c2-c2ccc(C#N)cc2)n(C2CCC3(CC2)CN(S(C)(=O)=O)C3)c(=O)n4C)cn1 [Example 112, 4-(3-Methyl-7-(1-methyl-1H-pyrazol-4-yl)-1-(2-(methylsulfonyl)-2-azaspiro[3.5]nonan-7-yl)-2-oxo-1,2,3,6-tetrahydroimidazo[4,5-d]pyrrolo[2,3-b]pyridin-8-yl)benzonitrile] | 500 to 1000 | ≤ 10 | ≤ 10
